Experimental data as given in patent US20240279171A1, “METHODS FOR PREPARING CRYSTALLINE FORMS OF AMISULPRIDE” (SUNOVION PHARMACEUTICALS INC., priority 2021, published 2024).
Like-named read-outs stand apart in the source and are kept apart here. Values belong to the molecule of their own block, whether it stands above or below them.

Experiments:
[1] = Particle size distribution by laser diffraction (Malvern Mastersizer 3000), Example 9; assay type: physicochemical; conditions: pre-sieved through 30 mesh screen, 0.2% Span 85 in hexanes
Procedure: Prior to analysis, the Form A′ crystals of (S)-amisulpride and Form A crystals of (R)-amisulpride were separately pre-sieved through a 30 mesh screen. All material was passed through screen during this pre-sieving step including aggregates.
Particle size distribution (PSD) measurements were measured by laser diffraction using a Malvern Instruments Mastersizer 3000 particle size analyzer instrument operated with the instrumentation and parameters described in Table 7.
The samples were first sieved through a 30 mesh screen prior to suspension. Approximately 400 mg of the sieved sample was weighed into a 50 ml beaker and 40 ml of a 0.2% v/v Span 85 (Sorbitan trioleate) in hexanes dispersant solution (e.g., a dispersant solution prepared by dissolving 2 mL of Span 85 (Sorbitan trioleate) in 1 L of hexanes) added. The overhead stirrer impeller was placed slightly above the bottom of the beaker (about 1 to 1.5 cm) and stirred at 500 rpm. After 1 minute, a disposable graduated transfer pipette was used to remove about 3 mL of the sample suspension from the center position of the beaker between impeller shaft and beaker side, and midway between top of vortex and beaker bottom. The entire contents of the pipette were added to the Malvern sample cell without inverting the pipette and the pipette rinsed twice with the circulating dispersant from the sample cell. The obscuration should be between 7% and 15%, if the obscuration was less than 7%, another aliquot of sample was added, making sure to transfer the entire aliquot taken up in the transfer pipette to the instrument, in order to avoid, e.g., potential artifacts due to settling of the suspension within the pipette. If the obscuration was greater than 15%, the instrument was drained and rinsed, and the measurement performed using a smaller sample suspension aliquot. After a sample cell with acceptable obscuration was obtained, the sample was circulated in the Mastersizer Hydro MV circulation system for two minutes and the sample dispersion measured.

[2] = Dynamic vapor sorption (DVS) water sorption isotherm; assay type: physicochemical; conditions: 25° C.; for hygroscopicity: DVS
Description: In various embodiments, the hygroscopicity of a compound is characterized by dynamic vapor sorption (DVS). DVS is a gravimetric technique that measures how much of a solvent is absorbed by a sample by varying the vapor concentration surrounding the sample (e.g., relative humidity) and measuring the change in mass. DVS was used herein to generate water sorption isotherms, which represent the equilibrium amount of water vapor adsorbed and/or absorbed as a function of steady state relative water vapor pressure at a constant temperature.
Dynamic vapor sorption (DVS) isotherms were generated using a VTI SGA-100 Symmetric Vapor Sorption Analyzer. Analysis included pre-analysis drying at 25° C. with equilibrium criteria of 0.0000 wt % change in 5 minutes or a maximum of 180 minutes. Equilibrium criteria were the lesser of 0.01 wt % change in 5 minutes or 180 minutes at each RH step. […] Analysis was repeated for each sample in consecutive analyses (i.e., the sample was not removed from analyzer between analyses).
Tables 9A and 9B presents the DVS water sorption for crystalline enantiomeric amisulpride of Form A and Form A′ shown in FIG. 7A.

[3] = Specific surface area (SSA), nitrogen gas, Quantachrome Quadrasorb SI; assay type: physicochemical; conditions: degassed 2 hours at 40° C. under vacuum
Procedure: Specific surface area (SSA) was measured using a Quantachrome Quadrasorb SI surface area analyzer performed at six-points over the relative pressure range of 0.1000 to 0.3500 in 0.0500 increments. Approximately 1.3 to 4.6 grams of sample were used per analysis and were weighed into bulb tubes. Samples in bulb tubes were degassed 2 hours at 40° C. under vacuum using the Quantachrome FlowVac degasser prior to surface area analysis. Nitrogen gas was used as the gas for the surface area analyses.

[4] = DVS, 25° C., 0 to 95% relative humidity; '738 patent; cited from earlier work
[5] = Particle size distribution (Malvern Mastersizer), Example 16; assay type: physicochemical; conditions: for PSD D10 (μm) / PSD D50 (μm) / PSD D90 (μm): cooling method Y (Example 4) vs cooling method X (Example 14); for D10 (μm) / D50 (μm) / D90 (μm): crystalline amisulpride used in the tablet formulations, Mastersizer 2000
Description: The particle size distribution (PSD) of crystalline products prepared by the foregoing examples were examined. FIG. 10 presents a plot of the cooling profile comparison between the cooling profile X, using the recrystallization procedure of, e.g., Example 14, with cooling profile Y, using the recrystallization procedure of, e.g., Example 4 (Step 2). Recrystallization using the cooling methods of Example 14 (cooling method X) provided Form A′ having a smaller particle size distribution (e.g., D50 and D90 values) than Form A′ prepared by the methods of Example 4 (cooling method Y), as shown in the table below.
PSD data was obtained using a Malvern Instruments Mastersizer particle size analyzer instrument.
The PSD of the crystalline amisulpride used in the various formulations are provided below. Amisulpride corresponding to “small PSD” can be prepared using the recrystallization and cooling methods of, e.g., Examples 14 and 15 (i.e., cooling profile X of FIG. 10). Amisulpride corresponding to “large PSD” can be prepared using the recrystallization methods of Examples 1 and 3 (i.e., cooling profile Y of FIG. 10). The PSDs were measured using a Mastersizer 2000 particle size analyzer instrument as described above.

[6] = listed as Form A′ (averages of lots prepared by the methods of Example 4)

SMILES: CCN1CCC[C@@H]1CNC(=O)c1cc(S(=O)(=O)CC)c(N)cc1OC [(R)-amisulpride Form A, (R)-4-Amino-N-[(1-ethyl-2-pyrrolidinyl)methyl]-5-(ethylsulfonyl)-2-methoxybenzamide]
- Average PSD D10 (μm) [1]: 14.3 μm
- Average PSD D50 (μm) [1]: 47.7 μm
- Average PSD D90 (μm) [1]: 133.9 μm
- DVS Ads. at 95% RH [2]: 0.14
- Change Mass (wt %) ([2]; Relative Humidity 1.39 %, elapse time 155.38 min): 0.000 wt %
- Change Mass (wt %) ([2]; Relative Humidity 4.79 %, elapse time 327.39 min): −0.003 wt %
- Change Mass (wt %) ([2]; Relative Humidity 10.00 %, elapse time 340.39 min): 0.003 wt %
- Change Mass (wt %) ([2]; Relative Humidity 14.96 %, elapse time 359.89 min): 0.009 wt %
- Change Mass (wt %) ([2]; Relative Humidity 19.81 %, elapse time 366.91 min): 0.015 wt %
- Change Mass (wt %) ([2]; Relative Humidity 24.91 %, elapse time 374.93 min): 0.020 wt %
- Change Mass (wt %) ([2]; Relative Humidity 30.02 %, elapse time 382.94 min): 0.026 wt %
- Change Mass (wt %) ([2]; Relative Humidity 34.96 %, elapse time 390.96 min): 0.031 wt %
- Change Mass (wt %) ([2]; Relative Humidity 39.94 %, elapse time 398.96 min): 0.038 wt %
- Change Mass (wt %) ([2]; Relative Humidity 44.99 %, elapse time 406.96 min): 0.043 wt %
- Change Mass (wt %) ([2]; Relative Humidity 49.99 %, elapse time 415.98 min): 0.049 wt %
- Change Mass (wt %) ([2]; Relative Humidity 54.96 %, elapse time 424.99 min): 0.055 wt %
- Change Mass (wt %) ([2]; Relative Humidity 59.96 %, elapse time 434.01 min): 0.061 wt %
- Change Mass (wt %) ([2]; Relative Humidity 64.91 %, elapse time 443.03 min): 0.067 wt %
- Change Mass (wt %) ([2]; Relative Humidity 69.86 %, elapse time 452.04 min): 0.073 wt %
- Change Mass (wt %) ([2]; Relative Humidity 74.86 %, elapse time 461.04 min): 0.080 wt %
- Change Mass (wt %) ([2]; Relative Humidity 79.80 %, elapse time 470.04 min): 0.087 wt %
- Change Mass (wt %) ([2]; Relative Humidity 84.74 %, elapse time 479.04 min): 0.101 wt %
- Change Mass (wt %) ([2]; Relative Humidity 89.58 %, elapse time 488.06 min): 0.113 wt %
- Change Mass (wt %) ([2]; Relative Humidity 94.72 %, elapse time 497.06 min): 0.135 wt %
- hygroscopicity [2]: substantially non-hygroscopic
- SSA (m^2/g) [3]: 0.51 m^2/g
- hygroscopicity [4]: substantially non-hygroscopic

SMILES: CCN1CCC[C@@H]1CNC(=O)c1cc(S(=O)(=O)CC)c(N)cc1OC [Form A large PSD]
- D10 (μm) [5]: 12.8 μm
- D50 (μm) [5]: 94.9 μm
- D90 (μm) [5]: 441.4 μm

SMILES: CCN1CCC[C@@H]1CNC(=O)c1cc(S(=O)(=O)CC)c(N)cc1OC [Form A small PSD]
- D10 (μm) [5]: 4.7 μm
- D50 (μm) [5]: 18.2 μm
- D90 (μm) [5]: 90.4 μm

SMILES: CCN1CCC[C@H]1CNC(=O)c1cc(S(=O)(=O)CC)c(N)cc1OC [Form A′ large PSD]
- D10 (μm) [5]: 31.6 μm
- D50 (μm) [5]: 93.1 μm
- D90 (μm) [5]: 425.4 μm

SMILES: CCN1CCC[C@H]1CNC(=O)c1cc(S(=O)(=O)CC)c(N)cc1OC [Form A′ prepared by Example 14, (S)-4-Amino-N-[(1-ethyl-2-pyrrolidinyl)methyl]-5-(ethylsulfonyl)-2-methoxybenzamide]
- PSD D10 (μm) [5]: 7.0 μm
- PSD D50 (μm) [5]: 25.5 μm
- PSD D90 (μm) [5]: 83.9 μm

Further lines, with some results ahead:

- Average PSD D10 (μm) [1]: 9.5 μm
- Average PSD D50 (μm) [1]: 32.3 μm
- Average PSD D90 (μm) [1]: 116.9 μm
- PSD D10 (μm) [5, 6]: 6.0 μm
- PSD D50 (μm) [5, 6]: 29.1 μm
- PSD D90 (μm) [5, 6]: 99.4 μm
- DVS Ads. at 95% RH [2]: 0.09
- Change Mass (wt %) ([2]; Relative Humidity 1.41 %, elapse time 180.73 min): 0.000 wt %
- Change Mass (wt %) ([2]; Relative Humidity 5.38 %, elapse time 195.14 min): 0.003 wt %
- Change Mass (wt %) ([2]; Relative Humidity 10.12 %, elapse time 207.64 min): 0.006 wt %
- Change Mass (wt %) ([2]; Relative Humidity 15.00 %, elapse time 219.64 min): 0.011 wt %
- Change Mass (wt %) ([2]; Relative Humidity 19.73 %, elapse time 227.64 min): 0.017 wt %
- Change Mass (wt %) ([2]; Relative Humidity 24.91 %, elapse time 235.64 min): 0.023 wt %
- Change Mass (wt %) ([2]; Relative Humidity 29.95 %, elapse time 243.64 min): 0.029 wt %
- Change Mass (wt %) ([2]; Relative Humidity 34.98 %, elapse time 251.64 min): 0.033 wt %
- Change Mass (wt %) ([2]; Relative Humidity 40.01 %, elapse time 260.64 min): 0.038 wt %
- Change Mass (wt %) ([2]; Relative Humidity 44.94 %, elapse time 269.64 min): 0.042 wt %
- Change Mass (wt %) ([2]; Relative Humidity 50.00 %, elapse time 278.64 min): 0.049 wt %
- Change Mass (wt %) ([2]; Relative Humidity 55.02 %, elapse time 287.66 min): 0.053 wt %
- Change Mass (wt %) ([2]; Relative Humidity 59.89 %, elapse time 296.66 min): 0.059 wt %
- Change Mass (wt %) ([2]; Relative Humidity 64.92 %, elapse time 305.66 min): 0.066 wt %
- Change Mass (wt %) ([2]; Relative Humidity 69.86 %, elapse time 314.66 min): 0.072 wt %
- Change Mass (wt %) ([2]; Relative Humidity 74.97 %, elapse time 323.66 min): 0.076 wt %
- Change Mass (wt %) ([2]; Relative Humidity 79.71 %, elapse time 332.66 min): 0.084 wt %
- Change Mass (wt %) ([2]; Relative Humidity 84.74 %, elapse time 341.66 min): 0.094 wt %
- Change Mass (wt %) ([2]; Relative Humidity 89.75 %, elapse time 350.66 min): 0.103 wt %
- Change Mass (wt %) ([2]; Relative Humidity 94.55 %, elapse time 359.68 min): 0.114 wt %
- hygroscopicity [2]: substantially non-hygroscopic
- SSA (m^2/g) [3]: 0.65 m^2/g
SMILES: CCN1CCC[C@H]1CNC(=O)c1cc(S(=O)(=O)CC)c(N)cc1OC [(S)-amisulpride Form A′, (S)-4-Amino-N-[(1-ethyl-2-pyrrolidinyl)methyl]-5-(ethylsulfonyl)-2-methoxybenzamide]
- hygroscopicity [4]: substantially non-hygroscopic

- D10 (μm) [5]: 5.1 μm
- D50 (μm) [5]: 18.3 μm
- D90 (μm) [5]: 80.1 μm
SMILES: CCN1CCC[C@H]1CNC(=O)c1cc(S(=O)(=O)CC)c(N)cc1OC [Form A′ small PSD]
